Laboratory results from paper PMC12491701, “Discovery of an APP-selective BACE1 inhibitor for Alzheimer's disease” (Neurotherapeutics, 2025).
≈ marks a conversion by molar mass, not a printed value. Read-outs that look alike come from different tables or passages of the source.

Legend:
Kinetic solubility assay = type: physicochemical; conditions: aqueous buffer, kinetic from dmso stock, PBS pH 7.4, 37 °C
Description: FAH65 and its enantiomers at 10 mM in 100% DMSO was diluted in PBS pH 7.4 to 100, 10, 1, and 0.1 µM; plus, a vehicle-only control. The solutions were incubated at 37 °C for 90 min and centrifuged at 16K x g for 5 min. An aliquot of each supernatant was analyzed by LC-MS/MS. A standard curve was generated by plotting the known amount of analyte per standard in DMSO vs. chromatographic peak […]
Kinetic solubility (µM) was calculated using the trendline equation with maximum chromatographic peak area observed in the aqueous sample. (Table S3)
Liver microsome stability assay
A 1 µL sample of 1 mM FAH65 and its enantiomers in 100% DMSO was added to 1 mL of 0.5 mg/mL human liver microsomes (Thermo Fisher Scientific, Cat# HMMPL) in PBS pH 7.4, 2 mM NADPH, and 2 mM MgCl2; and incubated at 37 °C for 120 min. Aliquots (50 µL) of the microsome solution were taken […]
quenching solution containing an internal standard. Solutions were clarified by centrifugation (16K x g, 5 min) and supernatants transferred to new tubes and lyophilized. Samples were reconstituted in 100 µL of 50/50/0.1 water/acetonitrile/formic acid prior to analysis via LC-MS/MS. […]
One µL FAH65 and its enantiomers (1 mM in 100% DMSO) was added to human peripheral blood plasma (Cat#70039, Stemcell Technologies Inc) diluted 2-fold in PBS (1000 µL, pH 7.4) and incubated […]

[1] = Efficacy testing in B254 mice; type: in vivo, mouse; conditions: both sexes, B254, mouse, brain, oral, 30 mg/kg BID, read-out: mean brain level of compound
From the text: (§1) B254 mice are an AD model comprising expression of human APP with Swedish and Indiana mutations along with a D664A substitution and endogenous murine tau, as described in Galvan et al.. In our in vivo studies, we detected impairment in learning and memory in B254 D664A mice at 5–6 months of age (end of chronic treatment) in the novel location and novel object spatial memory testing paradigms. We note that previous studies have reported conflicting findings for such impairments when using in the Morris Water Maze. […] In a later study performed by a different group, it was reported that at both 2–3 or 5–7 months of age B254 and J20 mice had similar abnormalities relative to non-transgenic mice in spatial and nonspatial learning and memory. Our findings were in alignment with the latter studies.
(§2) Male and female 4-5 month-old B254 mice in the subchronic and chronic treatment were administered FAH65 via pipette feeding by the method of Atcha et al. at a dose of 30 mg/kg BID (60 mg/kg/day). Mice were weighed before the first dose for the calculation of volume to be administered. The formulation used comprised FAH65 hydrochloride as a 40 mg/mL solution in water plus 30 mg/mL in strawberry syrup.
(§3) In the pilot subchronic study, mice were treated for 10 days, and in the follow-up study, for 26 days. One week before the end of the study, mice in the pilot study underwent Novel Object Recognition (NOR) memory testing, and mice in the follow-up chronic study underwent both NOR and Novel Location Recognition (NLR) testing as described elsewhere. Briefly, mice are introduced to two identical, parallel and evenly objects in an opaque 30 × 40 cm arena (box without a lid) with navigation marks on the wall, for 10 min. For Novel Location Recognition (NLR), after a 2.5-h interval, the mouse is returned to the arena wherein one identical object has been moved diagonally. The time spent and number of discreet interactions with the objects in the original location and in the new location over 10 min is recorded. The mouse is then removed from the arena, and after an additional 2.5-h interval, for the Novel Object Recognition (NOR) phase, is returned to the arena wherein the objects are in the original position, but one is a new, different object. The time spent and number of discreet interactions with the objects in the original location and in the new location over 10 min is recorded. The novelty preference was calculated by […].
(§4) For in vivo studies, Individual tissues were weighed and sonicated on ice with AlphaLISA Lysis Buffer complemented with HALT (Fisher catalog # 78446) to give a 10 % W/V sonicate. Total protein concentration was assessed by BCA assay (Fisher catalog # 23227) following manufacturer recommendations.
(§5) For the ELISA assay to assess sAPPβ levels in brain an IBL ELISA (kit #27733) specific for sAPPβ with the Swedish (K595 N/M596L) mutation that is present in the APP transgene of the mouse model used following the kit instructions. Briefly, 499 μL of EIA buffer was added to individual tubes for each sample, 1 μL of sample added, vortexed and centrifuged. To each assay plate well, 100 μL of sample was added, and the covered plate incubated overnight at 4 °C. The plate(s) was washed 4 times with 350 μL/well wash buffer, then 100 μL/well of labeled antibody added followed by incubation for 30 min at 4 °C. After five washes, 100 μL chromogen solution was added to each well and incubated for 30 min at RT in the dark. Stop solution (100 μL/well) was then added and the plate read at 450 nm. […]

B254 mice = assay: Efficacy testing in B254 mice; type: in vivo, mouse
From the text: as §1, §2, §3, §4, §5

[2] = chronic study, oral 30 mkd, 26 days

solubility kinetic at 90 min (Kinetic solubility assay): 88 µM (≈ 37.3 µg/mL)
concentration at 2 h ([1]; chronic, 2 h after last day dosing): ~50 ng/g
concentration at 2 h ([1]; subchronic, 2 h after the last dose): ~20 ng/g
Structure (SMILES): Cc1cc(C2(c3cccc(-c4cncnc4)c3)N=C(N)N(C)C2=O)ccc1OC(F)F (centres unmarked) [FAH65]
novelty preference in NOR vs. vehicle (B254 mice; [2]): significant increase
novelty preference in Novel Location Recognition (NLR) vs. vehicle (B254 mice; [2]): significant increase
brain level of Aβ1-42 vs. vehicle (B254 mice; chronic, 26 days): not significantly different
brain level of sAPPβ vs. vehicle (B254 mice; chronic, 26 days): not significantly different
sAPPα in brain tissue vs. vehicle (B254 mice; chronic, 26 days): significantly higher
sAPPβ/sAPPα ratio in brain tissue vs. vehicle (B254 mice; chronic, 26 days): significantly lower
Novel Object Recognition (NOR) performance vs. vehicle (B254 mice; pilot subchronic study, oral 30 mkd, 10 days): not significantly increased
GFAP, IP-10, Aβ1-38, Aβ1-40, Aβ1-42 and Aβ1-42/1-40 ratio in brain (MSD) vs. vehicle (B254 mice; subchronic study): no significant differences
APP β-CTF in brain tissue vs. vehicle (B254 mice; subchronic, 10 days): significant decrease
Aβ 1-42 in brain vs. vehicle (B254 mice; subchronic, 10 days): not significant
p-tau/t-tau ratio in brain vs. vehicle (B254 mice; subchronic, 10 days): not significant
